Patent US8513250B2 (Laboratoire Biodim, priority 2007, dated 2013)

How the values were obtained:
[1] = tested on: S. agalactiae NEM316 WT; assay: Minimal Antivirulent Concentration (MAC) assay, sensitization of bacteria to colistin; format: cell-based; details: S. agalactiae wt strain, in presence of colistin 32 μg/ml, overnight, no visible growth
Text: The readout of the assay is called Minimum antivirulent concentration (MAC) and represents the minimal dose of compound for which no visible bacterial growth is observed in the presence of colistin at a subinhibitory concentration. MAC assay is described in Method 3 hereinafter.
Method 3: Assay for Minimal Antivirulent Concentration (MAC) and Minimal Inhibitory Concentration (MIC): Determination of Compounds Activity for Sensitization of Bacteria to Cationic Peptide (Colistin)
The Gram positive bacteria S. agalactiae NEM316 WT are grown on tryptic soy agar (TSA) broth over-night at 37° C. with air enriched with 5% CO2. Ten to fifteen colonies isolated from over-night growth on agar are then added to 10 ml of TS media to produce a standard suspension of organisms. This pre-culture is incubated at 37° C. with constant shaking during two to three hours to reach the exponential phase. This suspension is diluted to obtain a final inoculum of 1E+04 CFU/ml. Viable counts are obtained by plating 10 to 1000-fold dilutions of the suspension on TSA.
According to our standardized conditions, the final volume in the well is 100 μl in a 96-well microplate. Compounds are tested in a range of 1 to 32 μg/mL. Each well contains 2 μl of compound diluted in 100% DMSO, 48 μl of TS (microplate without colistin) or 48 μl of colistin in TS (final concentration of colistin is 32 μg/ml for S. agalactiae), then […] (final inoculum of 1 E+04 CFU/ml). Final concentration of DMSO is 2%. Positive growth control wells for each organism are prepared with and without colistin and DMSO 2% final concentration. S. agalactiae NEM316 Δdlt is used in control wells to verify the effect of the colistin on a sensitive strain.
The microplates are then incubated overnight at 37° C. with 5% CO2. Visible bacterial growth is finally quantified by unaided eye.
The MAC of each compound is derived from the experiment in presence of colistin and is defined as the minimal concentration of compound for which no bacterial visible growth is observed.

[2] = tested on: S. agalactiae strain NEM316; assay: Experimental model of systemic infection in mice, organ bacteraemia at 48 h; format: in vivo; details: BALB/c mice, i.v. infection, compound intraperitoneal immediately after infection, spleen bacteraemia 48 h
Description: The effect of DltA inhibitors on the bacteria during an infection was assessed by injecting the molecules at different doses in group of mice that have received an infective dose of bacteria.
Description of Experimental Models Used to Assess the Efficacy of Inhibitors In Vivo:
Briefly, in vivo studies were performed using 4-5-week-old female BALB/c@Rj nice. S. agalactiae strain NEM316 bacteria were grown to exponential phase in broth culture. 200 μl of a bacterial suspension of 3.10^7 CFU/ml were administered by intravenous injection to groups of six mice (6.10^6 CFU/mouse). Exact inoculums counts were determined by plating 10-fold dilutions of the suspension on TH agar plates immediately after inoculation.
The compounds to be assessed are dissolved and diluted to obtain different concentration in a solution containing solutol; and 400 μl of each compound solution is injected intraperinonaly immediately after infection of the mouse. […]
The antibacterial effect obtained with different concentrations of compounds is measured by the level of bacteraemia observed at 48 H.
The graphs represent the average value of the organ bacteremia that is determined by the number of UFC/mg of organs (spleen) at 48 h post infection, obtained for each group of mice that have received different concentration of compounds (expressed in mg/kg). […]

[3] = biological target: T1, DltA enzyme (Streptococcus agalactiae serotype III, UniProt Q8VM67); assay: DltA HTS assays (luminescent / fluorescent), inhibition of DltA enzymatic activity in vitro; format: biochemical, S. agalactiae; details: Table 1; DltA inhibition, HTS assays of method 1; read-out: IC50
T1 construct: His-tag (from pET100 vector) (N); made in house; host or cells: E. coli BL21 (DE3) Star
T1 sequence (Q8VM67 1-511): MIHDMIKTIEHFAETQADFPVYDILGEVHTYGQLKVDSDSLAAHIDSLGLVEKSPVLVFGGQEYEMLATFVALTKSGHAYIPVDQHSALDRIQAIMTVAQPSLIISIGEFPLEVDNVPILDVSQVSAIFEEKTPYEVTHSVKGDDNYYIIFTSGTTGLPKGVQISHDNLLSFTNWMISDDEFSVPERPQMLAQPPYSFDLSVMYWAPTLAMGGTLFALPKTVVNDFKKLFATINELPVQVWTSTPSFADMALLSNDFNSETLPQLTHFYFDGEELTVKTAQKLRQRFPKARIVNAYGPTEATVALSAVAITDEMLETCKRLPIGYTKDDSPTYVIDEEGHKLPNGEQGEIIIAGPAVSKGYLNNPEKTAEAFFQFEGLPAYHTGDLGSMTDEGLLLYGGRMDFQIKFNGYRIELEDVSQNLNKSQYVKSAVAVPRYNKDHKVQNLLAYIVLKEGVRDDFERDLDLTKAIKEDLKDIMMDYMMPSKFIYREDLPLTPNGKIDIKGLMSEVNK

[4] = tested on: S. agalactiae NEM316 WT; assay: Minimal Inhibitory Concentration (MIC) assay, absence of colistin; format: cell-based; details: Streptococcus agalactiae, NEM316WT; S. agalactiae wt strain, absence of colistin, overnight, no visible growth; read-out: MIC SAG wt

With `OCCCNc1nc2cc(C(F)(F)F)ccc2n2c(-c3ccn[nH]3)cnc12` [Example 19, 3-{[1-(1H-pyrazol-5-yl)-7-(trifluoromethyl)imidazo[1,2-a]quinoxalin-4-yl]amino}propan-1-ol] the “MAC” value [1] was 2 µg/mL, the effective concentration [2] was 10 mg/kg and the IC50 [3] was 9 nM. It also gave an MIC [4] of over 32 µg/mL.
